In publication PMC7249037, “Phenylpyrazalopyrimidines as Tyrosine Kinase Inhibitors: Synthesis, Antiproliferative Activity, and Molecular Simulations” (Molecules, 2020):
“And” between values parts separate entries of the source, which are not always exact repeats. Equal values may be shown once.

Key:
MDA-MB-231 cells = assay: Cell proliferation assay (CellTiter 96); assay type: cell-based, human; conditions: for reducing the cell proliferation (in words): 24–96 h
Experimental: (§1) Human leukemia cell line CCRF-CEM (ATCC no. CCL-119), human ovarian adenocarcinoma cell line SK-OV-3 (ATCC no. HTB-77), human breast carcinoma cell line MDA-MB-231 (ATCC no.HTB-26), and human colon adenocarcinoma cell line HT-29 (ATCC no. HTB-38) were obtained from American Type Culture Collection. Cells were grown on 75 cm^2 cell culture flasks with […] (for leukemia cells) and EMEM (Eagle’s minimum essential medium) (for SK-OV-3, HT-29, MDA-MB-231 cells), supplemented with 10% fetal bovine serum (FBS), and 1% penicillin-streptomycin solution (10,000 units of penicillin and 10 mg of streptomycin in 0.9% NaCl) in a humidified atmosphere of 5% CO2, 95% air at 37 °C.
(§2) The cell proliferation assay was carried out using a CellTiter 96 aqueous one-solution cell proliferation assay kit (Promega, Madison, WI, USA). Briefly, upon reaching about 75–80% confluence, 5000 cells/well were plated in 96-well microplate in 100 μL of the medium. After seeding for 24 h, the cells were treated with 50 µM compound in triplicate. Doxorubicin (10 µM) was used as a positive control. […] The plate was returned to the incubator for 1 h in a humidified atmosphere at 37 °C. The absorbance of the formazan product was measured at 490 nm using a microplate reader. The blank control was recorded by measuring the absorbance at 490 nm with wells containing medium mixed with CellTiter 96 aqueous solution but no cells. The percentage of cell survival was calculated as the OD value of cells treated with test compound − OD value of culture medium/(OD value of control cells − OD value of culture medium) × 100%. The same strategy was used for generating a dose-response graph for compound 10.

CCRF-CEM cells = assay: Cell proliferation assay (CellTiter 96); assay type: cell-based, human; conditions: for reducing the cell proliferation (in words): 24–96 h
Experimental: as §1, §2

SK-OV-3 cells = assay: Cell proliferation assay (CellTiter 96); assay type: cell-based, human; conditions: for reducing the cell proliferation (in words): 24–96 h; for IC50: SK-OV-3 cells, 72 h incubation
Experimental: as §1
(§3) The cell proliferation assay was carried out using a CellTiter 96 aqueous one-solution cell proliferation assay kit (Promega, Madison, WI, USA). Briefly, upon reaching about 75–80% confluence, 5000 cells/well were plated in 96-well microplate in 100 μL of the medium. After seeding for 24 h, the cells were treated with 50 µM compound in triplicate. Doxorubicin (10 µM) was used as a positive control. At the end of the sample exposure period (72 h), 20 µL of CellTiter 96 aqueous solution was added. The plate was returned to the incubator for 1 h in a humidified atmosphere at 37 °C. The absorbance of the formazan product was measured at 490 nm using a microplate reader. The blank control was recorded by measuring the absorbance at 490 nm with wells containing medium mixed with CellTiter 96 aqueous solution but no cells. The percentage of cell survival was calculated as the OD value of cells treated with test compound − OD value of culture medium/(OD value of control cells − OD value of culture medium) × 100%. The same strategy was used for generating a dose-response graph for compound 10.

HT-29 cells = assay: Cell proliferation assay (CellTiter 96); assay type: cell-based, human; conditions: for reducing the cell proliferation (in words): 24–96 h
Experimental: as §1, §3

c-Src [1] = target: T1, c-Src (Homo sapiens, UniProt P12931); assay: c-Src kinase activity assay (Transcreener ADP fluorescence intensity); assay type: biochemical; design: 0.7 nM of His6-Src kinase domain in kinase buffer; His6; conditions: in vitro Src kinase inhibition, His6-Src kinase domain, triplicate
Experimental: In summary, the kinase reaction was started in the 384-well low volume black microplate with the incubation of 2.5 μL of the reaction cocktail (0.7 nM of His6-Src kinase domain in kinase buffer) with 2.5 μL of prediluted compounds (dissolved in 10% DMSO, 4× target concentration) for 10 min at room temperature using microplate shaker. The reaction cocktail was made using the kinase buffer HEPES (200 mM, pH 7.5), MgCl2 (16 mM), EGTA (8 mM), DMSO (4%), Brij-35 (0.04%), and 2-mercaptoethanol (43 mM). The kinase reaction was started by adding 5 μL of ATP/substrate (40 μM/600 μM) cocktail and incubated for 30 min at room temperature on a microplate shaker. Src optimal peptide ([…]) was used as the substrate for the kinase reaction. The kinase reaction was stopped by adding 10 μL of the 1× ADP Detection Mixture to the enzyme reaction mixture and mixed using a plate shaker. The mixture was incubated at room temperature for 1 h, and the fluorescence intensity was measured. The 1× ADP Detection Mixture was prepared by adding ADP^2 Antibody-IRDyeR QC-1 (10 μg/mL) and ADP Alexa594 Tracer (8 nM) to Stop and Detect Buffer B(1×). The fluorescence Intensity measurements were performed using a fluorescence intensity optical module using the excitation of 580 nm and emission of 630 nm with bandwidths of 10 nm by Optima, BMG Labtech microplate reader (BMG Labtech, Ortenberg, Germany). The IC50 values of the compounds were calculated using ORIGIN 6.0 (Origin Lab, Microcal Software, Inc. Northhampton, MA, USA) software. […] All the experiments were carried out in triplicate.
Target sequence in this assay (P12931 270-523 limits assumed): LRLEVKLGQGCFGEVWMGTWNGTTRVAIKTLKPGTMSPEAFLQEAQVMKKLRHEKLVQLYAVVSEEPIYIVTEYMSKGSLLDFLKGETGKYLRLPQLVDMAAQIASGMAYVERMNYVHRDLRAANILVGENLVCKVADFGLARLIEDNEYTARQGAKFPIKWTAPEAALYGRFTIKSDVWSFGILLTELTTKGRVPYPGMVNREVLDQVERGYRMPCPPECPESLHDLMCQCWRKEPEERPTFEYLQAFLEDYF

Akt1 = target: T2, Akt1 (Homo sapiens, UniProt P31749); assay: Kinase panel, radiometric filter-binding (Reaction Biology); assay type: biochemical; conditions: 200 µM ATP, NA = not active, values above 1 µM estimated from curve fit
T2 construct: purchased Invitrogen (assay run by Reaction Biology Corporation) PR3878D
T2 sequence (P31749 whole entry): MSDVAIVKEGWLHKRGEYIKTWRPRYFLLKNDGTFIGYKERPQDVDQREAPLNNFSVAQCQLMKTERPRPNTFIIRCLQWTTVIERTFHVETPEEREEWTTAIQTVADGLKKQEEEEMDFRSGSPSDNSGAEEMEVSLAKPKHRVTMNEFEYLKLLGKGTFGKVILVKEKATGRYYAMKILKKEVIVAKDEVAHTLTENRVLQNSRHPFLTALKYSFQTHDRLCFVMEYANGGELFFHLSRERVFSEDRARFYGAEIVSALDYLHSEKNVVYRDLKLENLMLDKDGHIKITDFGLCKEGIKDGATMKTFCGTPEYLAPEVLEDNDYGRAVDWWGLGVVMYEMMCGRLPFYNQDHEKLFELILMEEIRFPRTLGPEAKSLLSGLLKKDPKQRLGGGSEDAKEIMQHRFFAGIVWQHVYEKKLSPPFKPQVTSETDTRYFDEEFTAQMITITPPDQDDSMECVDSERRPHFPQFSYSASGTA
Experimental: Required cofactors were added individually to each kinase reaction. […] The serial dilution was conducted by Integra Viaflo Assist in DMSO.

Btk = target: T3, Btk (Homo sapiens, UniProt Q06187); assay: as above; assay type: biochemical; conditions: 200 µM ATP, values above 1 µM estimated from curve fit
T3 construct: purchased Invitrogen (assay run by Reaction Biology Corporation) PV3363
T3 sequence (Q06187 whole entry): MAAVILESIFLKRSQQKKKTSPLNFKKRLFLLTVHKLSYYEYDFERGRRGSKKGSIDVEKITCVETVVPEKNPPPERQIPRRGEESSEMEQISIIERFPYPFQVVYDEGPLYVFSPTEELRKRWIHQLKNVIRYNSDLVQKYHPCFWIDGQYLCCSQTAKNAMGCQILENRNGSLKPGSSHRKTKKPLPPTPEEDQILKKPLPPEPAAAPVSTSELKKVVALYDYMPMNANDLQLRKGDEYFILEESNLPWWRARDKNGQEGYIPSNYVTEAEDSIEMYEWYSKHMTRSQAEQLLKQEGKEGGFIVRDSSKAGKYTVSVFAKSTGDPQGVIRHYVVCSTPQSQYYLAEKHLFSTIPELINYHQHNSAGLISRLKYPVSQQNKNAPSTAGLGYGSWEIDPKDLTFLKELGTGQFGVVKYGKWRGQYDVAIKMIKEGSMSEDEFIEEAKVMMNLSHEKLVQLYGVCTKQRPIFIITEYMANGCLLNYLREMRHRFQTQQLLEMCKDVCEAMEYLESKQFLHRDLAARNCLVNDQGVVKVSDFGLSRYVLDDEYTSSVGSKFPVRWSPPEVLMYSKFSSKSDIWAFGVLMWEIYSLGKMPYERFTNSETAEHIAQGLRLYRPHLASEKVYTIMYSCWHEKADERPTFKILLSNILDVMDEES

c-Src [2] = target: T1, c-Src; assay: as above; assay type: biochemical; design: purchased Invitrogen (assay run by Reaction Biology Corporation) P3044; conditions: 200 µM ATP, values above 1 µM estimated from curve fit
Target sequence in this assay (P12931 whole entry, the tested form may be a part): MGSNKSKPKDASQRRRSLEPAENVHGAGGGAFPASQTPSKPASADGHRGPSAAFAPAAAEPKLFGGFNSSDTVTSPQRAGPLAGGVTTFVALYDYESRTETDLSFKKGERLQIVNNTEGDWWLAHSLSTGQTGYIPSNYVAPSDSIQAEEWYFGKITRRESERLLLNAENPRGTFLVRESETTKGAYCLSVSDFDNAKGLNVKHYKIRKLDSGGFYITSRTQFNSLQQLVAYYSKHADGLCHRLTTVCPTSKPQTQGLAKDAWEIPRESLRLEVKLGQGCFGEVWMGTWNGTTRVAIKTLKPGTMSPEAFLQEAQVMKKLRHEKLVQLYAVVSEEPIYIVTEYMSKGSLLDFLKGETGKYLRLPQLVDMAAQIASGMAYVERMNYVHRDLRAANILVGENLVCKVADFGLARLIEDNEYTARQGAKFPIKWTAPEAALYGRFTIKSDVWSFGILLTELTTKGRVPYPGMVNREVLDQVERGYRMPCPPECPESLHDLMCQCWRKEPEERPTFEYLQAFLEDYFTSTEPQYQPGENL

Lck = target: T4, Lck (Homo sapiens, UniProt P06239); assay: as above; assay type: biochemical; conditions: 200 µM ATP, values above 1 µM estimated from curve fit
T4 construct: purchased Invitrogen (assay run by Reaction Biology Corporation) P3043
T4 sequence (P06239 whole entry): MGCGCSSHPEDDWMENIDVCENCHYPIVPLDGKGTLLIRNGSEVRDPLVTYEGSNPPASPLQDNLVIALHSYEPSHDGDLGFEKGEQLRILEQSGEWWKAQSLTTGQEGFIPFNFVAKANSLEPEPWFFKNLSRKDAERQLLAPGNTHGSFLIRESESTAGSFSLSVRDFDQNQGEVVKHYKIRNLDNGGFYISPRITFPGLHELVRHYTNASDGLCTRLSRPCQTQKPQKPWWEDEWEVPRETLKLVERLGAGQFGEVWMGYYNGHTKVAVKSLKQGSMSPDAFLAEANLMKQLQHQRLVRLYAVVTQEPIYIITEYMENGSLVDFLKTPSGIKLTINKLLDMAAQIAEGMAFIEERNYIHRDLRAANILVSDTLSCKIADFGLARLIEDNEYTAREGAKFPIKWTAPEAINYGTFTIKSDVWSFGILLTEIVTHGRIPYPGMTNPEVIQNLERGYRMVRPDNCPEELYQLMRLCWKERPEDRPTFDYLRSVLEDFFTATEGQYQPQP

IC50 (c-Src [1])	SMILES	reducing the cell proliferation (in words) (MDA-MB-231 cells; MDA-MB-231, 50 µM)	reducing the cell proliferation (in words) (CCRF-CEM cells; 50 µM)	reducing the cell proliferation (in words) (SK-OV-3 cells; SK-OV-3, 50 µM)	reducing the cell proliferation (in words) (HT-29 cells; HT-29, 50 µM)	other results
–	CC(=O)Cn1nc(-c2ccccc2)c2c(N)ncnc21 [Compound 2, 1-(4-Amino-3-phenyl-1H-pyrazolo[3,4-d]pyrimidin-1-yl)propan-2-one]	inactive	inactive	inactive	inactive	–
32.9 µM	CC(=O)C(=Cc1ccc(C)cc1)n1nc(-c2ccccc2)c2c(N)ncnc21 [Compound 3, 3-(4-Amino-3-phenyl-1H-pyrazolo[3,4-d]pyrimidin-1-yl)-4-p-tolylbut-3-en-2-one]	–	–	–	–	–
24.7 µM	CC(=O)C(=Cc1cccc(C)c1)n1nc(-c2ccccc2)c2c(N)ncnc21 [Compound 4, 3-(4-Amino-3-phenyl-1H-pyrazolo[3,4-d]pyrimidin-1-yl)-4-m-tolylbut-3-en-2-one]	–	–	–	–	–
192 µM	CC(=O)/C(=C\c1ccc(-c2ccccc2)cc1)n1nc(-c2ccccc2)c2c(N)ncnc21 [Compound 5, 3-(4-Amino-3-phenyl-1H-pyrazolo[3,4-d]pyrimidin-1-yl)-4-p-biphenylbut-3-en-2-one]	–	–	–	–	–
21.7 µM	COc1ccc(C=C(C(C)=O)n2nc(-c3ccccc3)c3c(N)ncnc32)cc1 [Compound 6, 3-(4-Amino-3-phenyl-1H-pyrazolo[3,4-d]pyrimidin-1-yl)-4-(4-methoxyphenyl)but-3-en-2-one]	–	–	–	–	–
36.9 µM	CC(=O)C(=Cc1ccc(N(C)C)cc1)n1nc(-c2ccccc2)c2c(N)ncnc21 [Compound 7, 3-(4-Amino-3-phenyl-1H-pyrazolo[3,4-d]pyrimidin-1-yl)-4-(4-(dimethylamino)phenyl)but-3-en-2-one]	inactive	inactive	inactive	inactive	–
–	CC(=O)C(=Cc1cccc([N+](=O)[O-])c1)n1nc(-c2ccccc2)c2c(N)ncnc21 [Compound 9, 3-(4-Amino-3-phenyl-1H-pyrazolo[3,4-d]pyrimidin-1-yl)-4-(3-nitrophenyl)but-3-en-2-one]	inactive	inactive	inactive	inactive	–
–	CC(=O)C(=Cc1ccc(Cl)cc1)n1nc(-c2ccccc2)c2c(N)ncnc21 [Compound 10, 3-(4-Amino-3-phenyl-1H-pyrazolo[3,4-d]pyrimidin-1-yl)-4-(4-chlorophenyl)but-3-en-2-one]	–	–	–	–	inhibition at 50 µM (MDA-MB-231 cells; Homo sapiens, MDA-MB-231, 50 µM, 96 h): 60%; inhibition at 50 µM (CCRF-CEM cells; Homo sapiens, 50 µM, 96 h): 79%; inhibition at 50 µM (SK-OV-3 cells; Homo sapiens, SK-OV-3, 50 µM, 96 h): 79%; IC50 (SK-OV-3 cells; Homo sapiens): 25.5 µM; inhibition at 50 µM (HT-29 cells; Homo sapiens, HT-29, 50 µM, 96 h): 90%; IC50 (Akt1): > 150 µM; IC50 (Btk): 90.5 µM and 95.4 µM; IC50 (c-Src [2]): 60.4 µM and 64.1 µM; IC50 (Lck): 110 µM
–	CC(=O)C(=Cc1ccc(Cl)cc1Cl)n1nc(-c2ccccc2)c2c(N)ncnc21 [Compound 11, 3-(4-Amino-3-phenyl-1H-pyrazolo[3,4-d]pyrimidin-1-yl)-4-(2,4-dichlorophenyl)but-3-en-2-one]	–	–	–	–	IC50 (SK-OV-3 cells; Homo sapiens): 34.3 µM
–	CC(=O)C(=Cc1ccccc1Cl)n1nc(-c2ccccc2)c2c(N)ncnc21 [Compound 12, 3-(4-Amino-3-phenyl-1H-pyrazolo[3,4-d]pyrimidin-1-yl)-4-(2-chlorophenyl)but-3-en-2-one]	inactive	inactive	inactive	inactive	–
–	COc1cccc2c1C(=O)c1c(O)c3c(c(O)c1C2=O)C[C@@](O)(C(=O)CO)C[C@@H]3O[C@H]1C[C@H](N)[C@H](O)[C@H](C)O1 [Dox, Doxorubicin, reference compound]	–	–	–	–	inhibition at 1 µM (MDA-MB-231 cells; Homo sapiens, MDA-MB-231, Dox positive control (1 µM in Figure 3, 10 µM in method), 96 h): 64%; inhibition at 1 µM (CCRF-CEM cells; Homo sapiens, Dox positive control (1 µM in Figure 3, 10 µM in method), 96 h): 73%; inhibition at 1 µM (SK-OV-3 cells; Homo sapiens, SK-OV-3, Dox positive control (1 µM in Figure 3, 10 µM in method), 96 h): 73%; inhibition at 1 µM (HT-29 cells; Homo sapiens, HT-29, Dox positive control (1 µM in Figure 3, 10 µM in method), 96 h): 75%
